Measured values published in ChEMBL document CHEMBL3885861, “Open TG-GATES”.

Species on record: Rattus norvegicus
Assay: Open TG-GATES - Regimen: Single
Assay type: toxicity, organism-based, Sprague-Dawley
Parameters: regimen Single, gender Male, age 6 weeks
Conditions: in vivo, po, 300 mg/kg, route gavage, dose level High; for APTT / Bas / Eos / Fbg / Hb / Ht / Lym / MCHC / MCV / Mono / Neu / PT / Plat / RBC / Ret / WBC: tissue Blood; for KIDNEY_L / KIDNEY_R / KIDNEY_TOTAL: tissue Kidney; for LIVER: tissue Liver; for ALP / ALT / AST / BUN / CRE / Ca / Cl / DBIL / GLC / IP / K / LDH / Na / PL / RALB / TBIL / TC / TG / TP / gamma-GTP: tissue Plasma

SMILES: CS(=O)(=O)Nc1ccc([N+](=O)[O-])cc1Oc1ccccc1 [NIMESULIDE]
- TERMINAL_BW (3 h): 200.7 g
- APTT (3 h): 21.2 s
- Bas (3 h): 0%
- Eos (3 h): 1.4%
- Fbg (3 h): 206.8 mg/dL
- Hb (3 h): 13 g/dL
- Ht (3 h): 38.1%
- Lym (3 h): 69.4%
- MCHC (3 h): 34.1%
- MCV (3 h): 65.4 fL
- Mono (3 h): 6%
- Neu (3 h): 23.6%
- PT (3 h): 12.4 s
- Plat (3 h): 109.9 x10_4/uL
- RBC (3 h): 582.6 x10_4/ul
- Ret (3 h): 11.4%
- WBC (3 h): 70.5 x10_2/uL
- KIDNEY_L (3 h): 0.9 g
- KIDNEY_R (3 h): 0.9 g
- KIDNEY_TOTAL (3 h): 1.8 g
- LIVER (3 h): 8.9 g
- ALP (3 h): 841.8 IU/L
- ALT (3 h): 35.8 IU/L
- AST (3 h): 62.8 IU/L
- BUN (3 h): 21.4 mg/dL
- CRE (3 h): 0.6 mg/dL
- Ca (3 h): 10.7 mg/dL
- Cl (3 h): 102.8 meq/L
- DBIL (3 h): 0.046 mg/dL
- GLC (3 h): 313.4 mg/dL
- IP (3 h): 9.9 mg/dL
- K (3 h): 4.9 meq/L
- LDH (3 h): 88.4 IU/L
- Na (3 h): 138 meq/L
- PL (3 h): 137.4 mg/dL
- RALB (3 h): 3.8 g/dL
- TBIL (3 h): 0.4 mg/dL
- TC (3 h): 81.2 mg/dL
- TG (3 h): 49.6 mg/dL
- TP (3 h): 5.1 g/dL
- gamma-GTP (3 h): 1 IU/L
- TERMINAL_BW (6 h): 196.2 g
- APTT (6 h): 19.9 s
- Bas (6 h): 0%
- Eos (6 h): 0.8%
- Fbg (6 h): 207.8 mg/dL
- Hb (6 h): 13 g/dL
- Ht (6 h): 39%
- Lym (6 h): 68.4%
- MCHC (6 h): 33.2%
- MCV (6 h): 64.4 fL
- Mono (6 h): 2.6%
- Neu (6 h): 28.6%
- PT (6 h): 12.5 s
- Plat (6 h): 110.2 x10_4/uL
- RBC (6 h): 605.8 x10_4/ul
- Ret (6 h): 9.2%
- WBC (6 h): 44 x10_2/uL
- KIDNEY_L (6 h): 0.8 g
- KIDNEY_R (6 h): 0.9 g
- KIDNEY_TOTAL (6 h): 1.7 g
- LIVER (6 h): 8.1 g
- ALP (6 h): 978 IU/L
- ALT (6 h): 30.6 IU/L
- AST (6 h): 61.6 IU/L
- BUN (6 h): 19.4 mg/dL
- CRE (6 h): 0.7 mg/dL
- Ca (6 h): 10.4 mg/dL
- Cl (6 h): 101.6 meq/L
- DBIL (6 h): 0.028 mg/dL
- GLC (6 h): 360 mg/dL
- IP (6 h): 10.7 mg/dL
- K (6 h): 4.5 meq/L
- LDH (6 h): 83.4 IU/L
- Na (6 h): 135.4 meq/L
- PL (6 h): 135 mg/dL
- RALB (6 h): 3.8 g/dL
- TBIL (6 h): 0.4 mg/dL
- TC (6 h): 80.4 mg/dL
- TG (6 h): 27 mg/dL
- TP (6 h): 5.3 g/dL
- gamma-GTP (6 h): 1 IU/L
- TERMINAL_BW (9 h): 192.8 g
- APTT (9 h): 19 s
- Bas (9 h): 0%
- Eos (9 h): 0%
- Fbg (9 h): 208.8 mg/dL
- Hb (9 h): 13.2 g/dL
- Ht (9 h): 39.2%
- Lym (9 h): 74.5%
- MCHC (9 h): 33.8%
- MCV (9 h): 65 fL
- Mono (9 h): 4.5%
- Neu (9 h): 20.8%
- PT (9 h): 12.8 s
- Plat (9 h): 108.6 x10_4/uL
- RBC (9 h): 603.2 x10_4/ul
- Ret (9 h): 10.1%
- WBC (9 h): 54.5 x10_2/uL
- KIDNEY_L (9 h): 0.8 g
- KIDNEY_R (9 h): 0.9 g
- KIDNEY_TOTAL (9 h): 1.7 g
- LIVER (9 h): 7.3 g
- ALP (9 h): 850.5 IU/L
- ALT (9 h): 26.8 IU/L
- AST (9 h): 59.8 IU/L
- BUN (9 h): 17.8 mg/dL
- CRE (9 h): 0.7 mg/dL
- Ca (9 h): 10.4 mg/dL
- Cl (9 h): 102.2 meq/L
- DBIL (9 h): 0.0125 mg/dL
- GLC (9 h): 323.5 mg/dL
- IP (9 h): 9.2 mg/dL
- K (9 h): 4.8 meq/L
- LDH (9 h): 121.2 IU/L
- Na (9 h): 133.5 meq/L
- PL (9 h): 128.2 mg/dL
- RALB (9 h): 4 g/dL
- TBIL (9 h): 0.4 mg/dL
- TC (9 h): 76.5 mg/dL
- TG (9 h): 14.2 mg/dL
- TP (9 h): 5.3 g/dL
- gamma-GTP (9 h): 1.8 IU/L
- TERMINAL_BW (24 h): 182.2 g
- APTT (24 h): 18.9 s
- Bas (24 h): 0%
- Eos (24 h): 1%
- Fbg (24 h): 187 mg/dL
- Hb (24 h): 13.7 g/dL
- Ht (24 h): 40.7%
- Lym (24 h): 61.2%
- MCHC (24 h): 33.7%
- MCV (24 h): 63.7 fL
- Mono (24 h): 9.8%
- Neu (24 h): 28.2%
- PT (24 h): 12.7 s
- Plat (24 h): 126.6 x10_4/uL
- RBC (24 h): 639.4 x10_4/ul
- Ret (24 h): 9.5%
- WBC (24 h): 117.8 x10_2/uL
- KIDNEY_L (24 h): 0.9 g
- KIDNEY_R (24 h): 0.9 g
- KIDNEY_TOTAL (24 h): 1.9 g
- LIVER (24 h): 8.1 g
- ALP (24 h): 783.2 IU/L
- ALT (24 h): 27.2 IU/L
- AST (24 h): 64.8 IU/L
- BUN (24 h): 22.8 mg/dL
- CRE (24 h): 0.8 mg/dL
- Ca (24 h): 9.9 mg/dL
- Cl (24 h): 108 meq/L
- DBIL (24 h): 0.032 mg/dL
- GLC (24 h): 209 mg/dL
- IP (24 h): 7.3 mg/dL
- K (24 h): 4.6 meq/L
- LDH (24 h): 99.6 IU/L
- Na (24 h): 139.6 meq/L
- PL (24 h): 110.4 mg/dL
- RALB (24 h): 3.9 g/dL
- TBIL (24 h): 0.4 mg/dL
- TC (24 h): 55.4 mg/dL
- TG (24 h): 41.2 mg/dL
- TP (24 h): 5.2 g/dL
- gamma-GTP (24 h): 1.8 IU/L
